Test results: patent US9938261B2, “Heterocyclic compounds and methods of use thereof” (AMBIT BIOSCIENCES CORPORATION, priority 2011, dated 2018)

Assays:
[1] = target: T1, KIT (Homo sapiens, UniProt P10721); test: Competition binding assay, KIT Kd; conditions: competition binding
T1 construct: made in house
In short: (§1)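 Kd values came from eleven-point threefold dilutions of compound, measured by qPCR of kinase eluted from affinity-ligand beads after 1 h equilibrium binding at room temperature. Kinase was either T7-phage fused or HEK-293-expressed with a DNA tag.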

[2] = target: T2, PDGFRβ (Homo sapiens, UniProt P09619); test: Competition binding assay, PDGFRβ Kd; conditions: competition binding
T2 construct: made in house
In short: as §1

[3] = target: kinase panel containing either 386 or 392 distinct kinases; test: Kinase selectivity score S10 from competition binding panel; conditions: 10 μM, panel of 386 or 392 distinct kinases
In short: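 S10 is the number of kinases with percent-of-control under 10, divided by all distinct wild-type kinases tested, from a single 10 μM concentration. Binding measured by qPCR of kinase recovered from ligand-coated beads after 1 h equilibrium at room temperature; kinases were phage fusions or DNA-tagged HEK-293 products.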

[4] = target: T3, CSF1R (Homo sapiens, UniProt P07333); test: Competition binding assay, CSF1R Kd; set-up: made in house; conditions: competition binding
In short: as §1

[5] = target: T3, CSF1R; test: HEK293 CSF1R phosphorylation MSD assay; type: cell-based; set-up: expressed in transfected cells; host or cells: HEK293; conditions: HEK293 cells, M-CSF stimulated CSF1R phosphorylation, MSD; read-out: HEK293 pCSF1R M-CSF MSD:IC50
In short: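 Ligand-induced CSF1R autophosphorylation was measured by MSD sandwich assay: CSF1R-FKBP from lysates captured via FK506, anti-phosphotyrosine readout. Cells were exposed to compound for 2 h (9-point, half-log, 0.5% DMSO) before 5 min 50 ng/mL M-CSF. Reported IC50 is the mean of duplicate-plate IC50s relative to DMSO control.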

T2 sequence (P09619 33-1106): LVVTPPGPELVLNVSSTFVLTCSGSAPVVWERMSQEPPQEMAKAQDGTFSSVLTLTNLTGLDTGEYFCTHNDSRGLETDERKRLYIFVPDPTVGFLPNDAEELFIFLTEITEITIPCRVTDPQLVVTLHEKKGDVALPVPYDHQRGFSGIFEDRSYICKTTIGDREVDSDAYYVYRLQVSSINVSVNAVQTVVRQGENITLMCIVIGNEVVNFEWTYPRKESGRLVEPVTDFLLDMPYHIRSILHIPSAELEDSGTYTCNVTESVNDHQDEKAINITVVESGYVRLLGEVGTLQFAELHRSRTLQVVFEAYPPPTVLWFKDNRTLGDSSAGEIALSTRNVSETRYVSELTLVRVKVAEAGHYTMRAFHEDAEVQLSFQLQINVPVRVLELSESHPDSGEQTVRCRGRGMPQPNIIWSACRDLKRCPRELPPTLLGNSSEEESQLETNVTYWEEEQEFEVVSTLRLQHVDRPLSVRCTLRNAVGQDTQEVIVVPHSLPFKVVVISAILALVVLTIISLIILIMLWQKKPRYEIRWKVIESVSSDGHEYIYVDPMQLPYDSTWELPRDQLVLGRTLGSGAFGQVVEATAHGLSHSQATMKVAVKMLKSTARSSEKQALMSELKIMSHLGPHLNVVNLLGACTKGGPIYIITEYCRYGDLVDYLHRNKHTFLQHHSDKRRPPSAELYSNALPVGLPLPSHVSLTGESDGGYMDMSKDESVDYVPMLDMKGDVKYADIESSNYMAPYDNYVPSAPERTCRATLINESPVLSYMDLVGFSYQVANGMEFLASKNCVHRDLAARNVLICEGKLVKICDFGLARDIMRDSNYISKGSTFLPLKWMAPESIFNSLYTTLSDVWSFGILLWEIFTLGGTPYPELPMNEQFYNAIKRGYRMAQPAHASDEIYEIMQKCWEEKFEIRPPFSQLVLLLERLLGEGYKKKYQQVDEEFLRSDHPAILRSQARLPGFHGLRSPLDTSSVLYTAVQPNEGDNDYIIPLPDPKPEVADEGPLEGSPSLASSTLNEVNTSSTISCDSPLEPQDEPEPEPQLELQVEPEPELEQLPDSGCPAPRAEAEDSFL
T1 sequence (P10721 26-976): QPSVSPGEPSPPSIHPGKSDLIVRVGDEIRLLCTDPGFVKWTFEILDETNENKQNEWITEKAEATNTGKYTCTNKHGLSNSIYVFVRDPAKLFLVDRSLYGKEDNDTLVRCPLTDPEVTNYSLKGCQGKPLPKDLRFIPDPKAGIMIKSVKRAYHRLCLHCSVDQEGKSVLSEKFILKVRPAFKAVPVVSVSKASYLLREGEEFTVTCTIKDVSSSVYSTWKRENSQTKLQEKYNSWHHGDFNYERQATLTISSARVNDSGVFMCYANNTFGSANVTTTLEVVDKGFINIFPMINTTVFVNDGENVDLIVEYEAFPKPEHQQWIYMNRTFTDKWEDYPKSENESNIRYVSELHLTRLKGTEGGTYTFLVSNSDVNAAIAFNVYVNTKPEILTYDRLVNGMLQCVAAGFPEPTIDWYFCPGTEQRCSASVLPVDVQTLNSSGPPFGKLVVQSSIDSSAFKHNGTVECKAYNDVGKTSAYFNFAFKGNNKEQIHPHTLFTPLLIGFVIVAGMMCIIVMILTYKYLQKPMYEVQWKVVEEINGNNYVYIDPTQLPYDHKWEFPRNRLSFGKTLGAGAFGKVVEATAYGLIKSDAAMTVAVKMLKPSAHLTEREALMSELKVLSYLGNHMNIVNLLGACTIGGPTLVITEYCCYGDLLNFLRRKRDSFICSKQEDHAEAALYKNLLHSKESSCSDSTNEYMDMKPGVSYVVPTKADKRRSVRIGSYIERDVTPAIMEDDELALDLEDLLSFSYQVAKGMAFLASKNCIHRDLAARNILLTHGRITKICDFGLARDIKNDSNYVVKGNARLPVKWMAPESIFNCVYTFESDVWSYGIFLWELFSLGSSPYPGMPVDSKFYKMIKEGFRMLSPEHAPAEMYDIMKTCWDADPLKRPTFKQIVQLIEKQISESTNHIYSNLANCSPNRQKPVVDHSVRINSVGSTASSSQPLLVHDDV
T3 sequence (P07333 20-972): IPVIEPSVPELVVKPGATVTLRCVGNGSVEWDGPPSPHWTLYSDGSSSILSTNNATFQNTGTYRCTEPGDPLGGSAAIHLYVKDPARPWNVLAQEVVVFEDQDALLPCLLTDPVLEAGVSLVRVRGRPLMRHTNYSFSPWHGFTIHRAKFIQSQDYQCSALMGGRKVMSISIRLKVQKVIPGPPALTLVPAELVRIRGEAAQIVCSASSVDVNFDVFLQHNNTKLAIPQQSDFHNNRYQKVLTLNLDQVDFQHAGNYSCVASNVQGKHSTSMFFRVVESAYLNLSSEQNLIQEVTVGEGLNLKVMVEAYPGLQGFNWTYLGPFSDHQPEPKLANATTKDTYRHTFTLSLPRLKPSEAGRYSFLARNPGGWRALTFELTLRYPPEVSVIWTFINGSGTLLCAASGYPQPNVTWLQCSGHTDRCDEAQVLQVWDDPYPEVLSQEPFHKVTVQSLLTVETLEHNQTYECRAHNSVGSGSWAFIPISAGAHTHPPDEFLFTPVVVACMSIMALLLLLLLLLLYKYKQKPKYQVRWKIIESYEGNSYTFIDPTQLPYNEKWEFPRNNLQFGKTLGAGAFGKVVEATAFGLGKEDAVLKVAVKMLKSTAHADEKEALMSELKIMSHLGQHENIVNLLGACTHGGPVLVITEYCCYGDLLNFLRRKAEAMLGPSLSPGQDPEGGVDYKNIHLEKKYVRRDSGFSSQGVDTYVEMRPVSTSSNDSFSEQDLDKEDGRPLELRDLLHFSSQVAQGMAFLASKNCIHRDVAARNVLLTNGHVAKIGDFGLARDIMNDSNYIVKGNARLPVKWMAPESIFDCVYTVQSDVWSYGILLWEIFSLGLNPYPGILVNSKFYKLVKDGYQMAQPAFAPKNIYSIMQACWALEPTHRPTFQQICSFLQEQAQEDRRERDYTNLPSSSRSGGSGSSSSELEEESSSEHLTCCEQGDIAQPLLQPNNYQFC

Row | Structure (SMILES) | Kd [1] [nM] | Kd [2] [nM] | Kinase specificity S(10) [3] | Kd [4] [nM] | IC50 [5] [nM]
1 | O[C@H]1[C@@H](O)CCC[C@H]1Nc1nc2ccc(Cn3cnc4cc(F)cnc43)cc2s1 [Example 228, (1S,2R,3R)-3-((6-((6-fluoro-3H-imidazo[4,5-b]pyridin-3-yl)methyl)benzo[d]thiazol-2-yl)amino)cyclohexane-1,2-diol] | 500 to 2000 | 50 to 500 | A (A≤0.01) | > 50 | > 500
2 | COCCOc1ccn2c(Cc3ccc4nc(N[C@@H]5CCCC[C@H]5O)sc4c3)cnc2c1 [Example 153, (1R,2R)-2-((6-((7-(2-methoxyethoxy)imidazo[1,2-a]pyridin-3-yl)methyl)benzo[d]thiazol-2-yl)amino)cyclohexanol] | 500 to 2000 | 50 to 500 | A (A≤0.01) | 5 to 20 | ≤ 50
3 | O[C@@H]1CCCC[C@H]1Nc1nc2ccc(Cc3cnc4ccc(Cl)nn34)cc2s1 [Example 158, (1R,2R)-2-((6-((6-chloroimidazo[1,2-b]pyridazin-3-yl)methyl)benzo[d]thiazol-2-yl)amino)cyclohexanol] | ≤ 100 | ≤ 50 | B (0.01<B≤0.02) | ≤ 5 | ≤ 50
4 | O[C@@H]1CCCC[C@H]1Nc1nc2ccc(Cn3cnc4cc(F)cnc43)cc2o1 [Example 132, (1R,2R)-2-((6-((6-fluoro-3H-imidazo[4,5-b]pyridin-3-yl)methyl)benzo[d]oxazol-2-yl)amino)cyclohexanol] | ≤ 100 | ≤ 50 | C (C>0.02) | ≤ 5 | 50 to 200
5 | O=C(O)/C=C/c1ccc2c(c1)ncn2Cc1ccc2nc(N[C@@H]3CCCC[C@H]3O)sc2c1 [Example 224, (E)-3-(1-((2-(((1R,2R)-2-hydroxycyclohexyl)amino)benzo[d]thiazol-6-yl)methyl)-1H-benzo[d]imidazol-5-yl)acrylic acid] | ≤ 100 | 50 to 500 | A (A≤0.01) | 5 to 20 | > 500
6 | COc1nc2c(cc1Br)ncn2Cc1ccc2nc(N[C@@H]3CCCC[C@H]3O)sc2c1 [Example 123, (1R,2R)-2-((6-((6-bromo-5-methoxy-3H-imidazo[4,5-b]pyridin-3-yl)methyl)benzo[d]thiazol-2-yl)amino)cyclohexanol] | ≤ 100 | ≤ 50 | B (0.01<B≤0.02) | 5 to 20 | 50 to 200
7 | O[C@@H]1[C@H](O)CCC[C@H]1Nc1nc2ccc(Cn3cnc4cc(-n5cncn5)cnc43)cc2s1 [Example 234, (1R,2S,3R)-3-((6-((6-(1H-1,2,4-Triazol-1-yl)-3H-imidazo[4,5-b]pyridin-3-yl)methyl)benzo[d]thiazol-2-yl)amino)cyclohexane-1,2-diol] | ≤ 100 | ≤ 50 | A (A≤0.01) | 5 to 20 | 50 to 200
8 | O[C@@H]1CCCC[C@H]1Nc1nc2ccc(Cn3cnc4cc(-n5cncn5)cnc43)cc2s1 [Example 145, (1R,2R)-2-((6-((6-(1H-1,2,4-triazol-1-yl)-3H-imidazo[4,5-b]pyridin-3-yl)methyl)benzo[d]thiazol-2-yl)amino)cyclohexanol] | 100 to 500 | ≤ 50 | A (A≤0.01) | ≤ 5 | ≤ 50
9 | CC(=O)c1ccc2c(c1)ncn2Cc1ccc2nc(N[C@@H]3CCCC[C@H]3O)sc2c1 [Example 110, 1-(1-((2-(((1R,2R)-2-hydroxycyclohexyl)amino)benzo[d]thiazol-6-yl)methyl)-1H-benzo[d]imidazol-5-yl)ethanone] | 100 to 500 | 50 to 500 | A (A≤0.01) | ≤ 5 | ≤ 50
10 | O[C@@H]1CCCC[C@H]1Nc1nc2ccc(Cn3cnc4cc(-n5cncn5)ccc43)cc2s1 [Example 161, (1R,2R)-2-((6-((5-(1H-1,2,4-triazol-1-yl)-1H-benzo[d]imidazol-1-yl)methyl)benzo[d]thiazol-2-yl)amino)cyclohexanol] | 100 to 500 | 50 to 500 | A (A≤0.01) | 5 to 20 | ≤ 50
11 | Cc1cc2ncn(Cc3ccc4nc(N[C@@H]5CCCC[C@H]5O)sc4c3)c2cc1C [Example 119, (1R,2R)-2-((6-((5,6-dimethyl-1H-benzo[d]imidazol-1-yl)methyl)benzo[d]thiazol-2-yl)amino)cyclohexanol] | ≤ 100 | ≤ 50 | A (A≤0.01) | 5 to 20 | 50 to 200
12 | N#Cc1cnc2c(c1)ncn2Cc1ccc2nc(N[C@@H]3CCCC[C@H]3CO)sc2c1 [Example 140, 3-((2-(((1R,2R)-2-(hydroxymethyl)cyclohexyl)amino)benzo[d]thiazol-6-yl)methyl)-3H-imidazo[4,5-b]pyridine-6-carbonitrile] | 500 to 2000 | 50 to 500 | A (A≤0.01) | 5 to 20 | 200 to 500
13 | O[C@@H]1CCCC[C@H]1Nc1nc2ccc(Cc3cnc4sccn34)cc2s1 [Example 157, (1R,2R)-2-((6-(imidazo[2,1-b]thiazol-5-ylmethyl)benzo[d]thiazol-2-yl)amino)cyclohexanol] | > 2000 | 500 to 2000 | A (A≤0.01) | 20 to 50 | > 500
14 | Fc1cnc2c(c1)ncn2Cc1ccc2nc(N[C@H]3C=CCCC3)sc2c1 [Example 176, (R)—N-(cyclohex-2-en-1-yl)-6-((6-fluoro-3H-imidazo[4,5-b]pyridin-3-yl)methyl)benzo[d]thiazol-2-amine] | 100 to 500 | 50 to 500 | B (0.01<B≤0.02) | 5 to 20 | 200 to 500
15 | COc1nc2c(cc1C#N)ncn2Cc1ccc2nc(N[C@@H]3CCCC[C@H]3O)sc2c1 [Example 126, 3-((2-(((1R,2R)-2-hydroxycyclohexyl)amino)benzo[d]thiazol-6-yl)methyl)-5-methoxy-3H-imidazo[4,5-b]pyridine-6-carbonitrile] | 100 to 500 | 50 to 500 | A (A≤0.01) | 5 to 20 | ≤ 50
16 | O[C@@H]1[C@H](O)CCC[C@H]1Nc1nc2ccc(Cc3cnc4cc(-n5nccn5)ccn34)cc2s1 [Example 231, (1R,2S,3R)-3-((6-((7-(2H-1,2,3-triazol-2-yl)imidazo[1,2-a]pyridin-3-yl)methyl)benzo[d]thiazol-2-yl)amino)cyclohexane-1,2-diol] | 500 to 2000 | 50 to 500 | A (A≤0.01) | 5 to 20 | ≤ 50
17 | C=C(c1ccc2c(c1)ncn2Cc1ccc2nc(N[C@@H]3CCCC[C@H]3O)sc2c1)C(F)(F)F [Example 175, (1R,2R)-2-((6-((5-(3,3,3-trifluoroprop-1-en-2-yl)-1H-benzo[d]imidazol-1-yl)methyl)benzo[d]thiazol-2-yl)amino)cyclohexanol] | 100 to 500 | 50 to 500 | A (A≤0.01) | 5 to 20 | 50 to 200
18 | O[C@@H]1CCCC[C@H]1Nc1nc2c(Cl)cc(Cc3cnc4ccc(N5CCOCC5)nn34)cc2s1 [Example 156, (1R,2R)-2-((4-chloro-6-((6-morpholinoimidazo[1,2-b]pyridazin-3-yl)methyl)benzo[d]thiazol-2-yl)amino)cyclohexanol] | > 2000 | 500 to 2000 | A (A≤0.01) | 5 to 20 | 200 to 500
19 | COc1ccc2ncc(Cc3ccc4nc(N[C@@H]5CCCC[C@H]5O)sc4c3)n2n1 [Example 150, (1R,2R)-2-((6-((6-methoxyimidazo[1,2-b]pyridazin-3-yl)methyl)benzo[d]thiazol-2-yl)amino)cyclohexanol] | ≤ 100 | 50 to 500 | B (0.01<B≤0.02) | ≤ 5 | 50 to 200
20 | N#Cc1ccn2c(Cc3ccc4nc(N[C@@H]5CCCC[C@H]5O)sc4c3)cnc2c1 [Example 117, 3-((2-(((1R,2R)-2-hydroxycyclohexyl)amino)benzo[d]thiazol-6-yl)methyl)imidazo[1,2-a]pyridine-7-carbonitrile] | > 2000 | 50 to 500 | A (A≤0.01) | 5 to 20 | > 500
21 | OC[C@@H]1CCCC[C@H]1Nc1nc2ccc(Cn3cnc4cc(Br)cnc43)cc2s1 [Example 133, ((1R,2R)-2-((6-((6-bromo-3H-imidazo[4,5-b]pyridin-3-yl)methyl)benzo[d]thiazol-2-yl)amino)cyclohexyl)methanol] | 100 to 500 | ≤ 50 | A (A≤0.01) | 5 to 20 | 50 to 200
22 | O[C@@H]1CCCC[C@H]1Nc1nc2ccc(Cn3cnc4cncnc43)cc2o1 [Example 118, (1R,2R)-2-((6-((9H-purin-9-yl)methyl)benzo[d]oxazol-2-yl)amino)cyclohexanol] | 100 to 500 |  | A (A≤0.01) | 20 to 50 | > 500
